Test results as given in PubChem BioAssay (NCI).
“And” between values parts separate entries of the source, which are not always exact repeats. Equal values may be shown once.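 Assay format: 96-well plates, 48-hour exposure. GI50 is the concentration that inhibits growth by half. TGI: total growth inhibition.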

Experiments:
Assay in all cases: NCI-60 cell line screen, 48 h
[1] = tested on: IGROV1 ovarian
[2] = tested on: MOLT-4 leukemia
[3] = tested on: MDA-MB-231 breast
[4] = tested on: U251 CNS
[5] = tested on: DU-145 prostate
[6] = tested on: OVCAR-5 ovarian
[7] = tested on: CAKI-1 renal
[8] = tested on: SK-MEL-28 melanoma
[9] = tested on: SNB-75 CNS
[10] = tested on: PC-3 prostate
[11] = tested on: MCF7 breast
[12] = tested on: HL-60(TB) leukemia
[13] = tested on: 786-0 renal
[14] = tested on: HOP-62 NSCLC
[15] = tested on: SN12C renal
[16] = tested on: NCI-H460 lung
[17] = tested on: NCI/ADR-RES ovarian
[18] = tested on: K-562 leukemia
[19] = tested on: OVCAR-3 ovarian
[20] = tested on: BT-549 breast
[21] = tested on: T-47D breast
[22] = tested on: NCI-H226 lung
[23] = tested on: UACC-257 melanoma
[24] = tested on: M14 melanoma
[25] = tested on: HCT-116 colon
[26] = tested on: EKVX NSCLC
[27] = tested on: MALME-3M melanoma
[28] = tested on: UO-31 renal
[29] = tested on: SR leukemia
[30] = tested on: HOP-92 NSCLC
[31] = tested on: SW-620 colon
[32] = tested on: LOX IMVI melanoma
[33] = tested on: SF-295 CNS
[34] = tested on: HT29 colon
[35] = tested on: COLO 205 colon
[36] = tested on: HCC-2998 colon
[37] = tested on: TK-10 renal
[38] = tested on: MDA-MB-435
[39] = tested on: OVCAR-8 ovarian
[40] = tested on: A549 NSCLC
[41] = tested on: SF-268 CNS
[42] = tested on: UACC-62 melanoma
[43] = tested on: NCI-H522 lung
[44] = tested on: OVCAR-4 ovarian
[45] = tested on: NCI-H23 lung
[46] = tested on: SF-539 CNS
[47] = tested on: RXF 393 renal
[48] = tested on: SK-OV-3 ovarian
[49] = tested on: SK-MEL-5 melanoma
[50] = tested on: CCRF-CEM leukemia
[51] = tested on: SK-MEL-2 melanoma
[52] = tested on: A498 renal
[53] = tested on: RPMI-8226 leukemia
[54] = tested on: HCT-15 colon
[55] = tested on: SNB-19 CNS
[56] = tested on: ACHN renal
[57] = tested on: KM12 colon
[58] = tested on: HS 578T breast

Structure (SMILES): COc1cc([C@@H]2c3cc4c(cc3[C@H](O)[C@H]3COC(=O)[C@@H]23)OCO4)cc(OC)c1OC
- GI50 [1]: 423 nM and 240 nM
- TGI [1]: > 100000 nM
- GI50 [2]: 587 nM and 845 nM
- TGI [2]: > 100000 nM
- GI50 [3]: 776 nM and 454 nM
- TGI [3]: > 100000 nM
- GI50 [4]: 460 nM and 382 nM
- TGI [4]: > 100000 nM
- GI50 [5]: 544 nM and 237 nM
- GI50 [6]: 721 nM
- TGI [6]: > 100000 nM
- GI50 [7]: 448 nM and 258 nM
- TGI [7]: > 35800 nM
- GI50 [8]: 561 nM and 374 nM
- TGI [8]: > 100000 nM
- GI50 [9]: 256 nM and 45.5 nM
- TGI [9]: > 100000 nM
- GI50 [10]: 362 nM and 510 nM
- TGI [10]: > 100000 nM
- GI50 [11]: 321 nM and 61.2 nM
- TGI [11]: > 100000 nM
- GI50 [12]: 293 nM and 454 nM
- TGI [12]: > 2810 nM and 64100 nM
- GI50 [13]: 504 nM and 332 nM
- TGI [13]: > 100000 nM
- GI50 [14]: 533 nM and 226 nM
- TGI [14]: > 100000 nM
- GI50 [15]: 677 nM and 400 nM
- TGI [15]: > 100000 nM
- GI50 [16]: 371 nM and 138 nM
- TGI [16]: > 10000 nM and 3070 nM
- GI50 [17]: 884 nM and 194 nM
- TGI [17]: > 10000 nM
- GI50 [18]: 349 nM and 405 nM
- TGI [18]: > 100000 nM
- GI50 [19]: 303 nM and 159 nM
- TGI [19]: 1530 nM and 371 nM
- GI50 [20]: 632 nM and 259 nM
- TGI [20]: > 42500 nM
- GI50 [21]: 405 nM
- TGI [21]: 4640 nM
- GI50 [22]: 754 nM and 602 nM
- TGI [22]: > 100000 nM
- GI50 [23]: > 100000 nM
- TGI [23]: > 100000 nM
- GI50 [24]: 355 nM and 135 nM
- TGI [24]: > 100000 nM
- GI50 [25]: 406 nM and 185 nM
- TGI [25]: > 10000 nM
- GI50 [26]: 434 nM
- TGI [26]: > 100000 nM
- GI50 [27]: 1110 nM and 169 nM
- TGI [27]: > 100000 nM
- GI50 [28]: 480 nM and 602 nM
- TGI [28]: > 100000 nM
- GI50 [29]: 222 nM
- TGI [29]: > 10000 nM
- TGI [30]: > 88600 nM
- GI50 [31]: 409 nM and 219 nM
- TGI [31]: > 100000 nM
- GI50 [32]: 460 nM and 623 nM
- TGI [32]: > 100000 nM
- GI50 [33]: 285 nM and 104 nM
- TGI [33]: 1610 nM
- GI50 [34]: 360 nM and 104 nM
- TGI [34]: > 3940 nM and 1060 nM
- GI50 [35]: 347 nM and 132 nM
- TGI [35]: 1300 nM and 431 nM
- GI50 [36]: 948 nM and 159 nM
- TGI [36]: > 6160 nM and 647 nM
- GI50 [37]: 743 nM
- TGI [37]: 9860 nM
- GI50 [38]: 124 nM and 31.5 nM
- TGI [38]: 377 nM and 132 nM
- GI50 [39]: 707 nM and 397 nM
- TGI [39]: > 100000 nM
- GI50 [40]: 732 nM and 333 nM
- TGI [40]: > 100000 nM
- GI50 [41]: 722 nM and 445 nM
- TGI [41]: > 100000 nM
- GI50 [42]: 407 nM and 153 nM
- TGI [42]: > 100000 nM
- GI50 [43]: 244 nM and 281 nM
- GI50 [44]: 1030 nM and 4920 nM
- TGI [44]: > 100000 nM
- GI50 [45]: 780 nM and 239 nM
- TGI [45]: > 100000 nM
- GI50 [46]: 256 nM and 94 nM
- TGI [46]: 876 nM and 400 nM
- GI50 [47]: 211 nM and 316 nM
- GI50 [48]: 529 nM and 301 nM
- GI50 [49]: 351 nM and 35.5 nM
- TGI [49]: 1800 nM and 254 nM
- GI50 [50]: 374 nM and 302 nM
- TGI [50]: > 100000 nM
- GI50 [51]: 445 nM and 584 nM
- TGI [51]: > 100000 nM
- GI50 [52]: 239 nM and 451 nM
- GI50 [53]: 566 nM and 300 nM
- TGI [53]: > 10000 nM and 1370 nM
- GI50 [54]: 415 nM and 327 nM
- TGI [54]: > 100000 nM
- GI50 [55]: 462 nM and 231 nM
- TGI [55]: > 100000 nM
- GI50 [56]: 568 nM and 1410 nM
- TGI [56]: > 100000 nM
- GI50 [57]: 343 nM and 158 nM
- TGI [57]: > 8500 nM and 967 nM
- GI50 [58]: 298 nM and 293 nM
- TGI [58]: > 5830 nM
